US12527779B2, “Prostaglandin E2 (PGE2) EP4 receptor antagonists” (Domain Therapeutics, priority 2019, dated 2026)

Assays:
Pan02 tumor cells = assay: In vivo anti-tumoral activity of Example 25 in a Pan02 tumor model; parameters: species or system C57BL/6 mice
Method: (§1) Pan02 tumor cells were maintained in vitro as a monolayer culture in RPM11640 medium supplemented with 10% fetal bovine serum at 37° C. in an atmosphere of 5% CO2 in air. The cells were routinely subcultured twice weekly by trypsin-EDTA treatment. The cells in an exponential growth phase were harvested and counted for tumor inoculation.
Female C57BL/6 mice were inoculated subcutaneously in the right rear flank region with Pan02 tumor cells (3×10^6) in 0.1 ml of PBS for tumor development on day 0. Tumor volumes were measured thrice per week in two dimensions using a caliper, and the volume was expressed in mm^3 using the formula: “V=(L×W×W)/2”, where V is tumor volume, L is tumor length (the longest tumor dimension) and W is tumor width (the longest tumor dimension perpendicular to L). When the mean tumor size reached approximately 100 mm^3, mice were randomly allocated into groups (10 mice per group) and treated with either a control antibody (rIgG2a(2A3), 200 μg/mouse, iv, Q3D) or an anti-PD-1 antibody (RPM1-14, 200 μg/mouse, iv, Q3D), with or without the compound of Example 25 (150 mg/kg, po, 0.5% MC, BID, BID time interval: 8 h) for at least 3 weeks.
(§2) Animals were checked daily for morbidity and mortality. During routine monitoring, the animals were checked for any effects on tumor growth and treatments on behavior such as mobility, food and water consumption, body weight gain/loss (body weights were measured thrice per week), eye/hair matting and any other abnormalities. Dosing as well as tumor and body weight measurements were conducted in a Laminar Flow Cabinet. The body weights and tumor volumes were monitored by using StudyDirector™ software (version 3.1.399.19).

[1] = biological target: T1, human EP4 (hEP4) receptor (Homo sapiens, UniProt P35408); assay: In vitro human EP4 functional antagonist activity using BRET biosensors (cAMP EPAC biosensor, TCS2510 stimulation); assay type: cell-based; settings: antagonist activity vs EC60 TCS2510, hEP4 in HEK-293 T cells
T1 construct: expressed in transfected cells; host or cells: HEK-293 T cells, transient co-transfection with polyethylenimine
T1 sequence (P35408 whole entry): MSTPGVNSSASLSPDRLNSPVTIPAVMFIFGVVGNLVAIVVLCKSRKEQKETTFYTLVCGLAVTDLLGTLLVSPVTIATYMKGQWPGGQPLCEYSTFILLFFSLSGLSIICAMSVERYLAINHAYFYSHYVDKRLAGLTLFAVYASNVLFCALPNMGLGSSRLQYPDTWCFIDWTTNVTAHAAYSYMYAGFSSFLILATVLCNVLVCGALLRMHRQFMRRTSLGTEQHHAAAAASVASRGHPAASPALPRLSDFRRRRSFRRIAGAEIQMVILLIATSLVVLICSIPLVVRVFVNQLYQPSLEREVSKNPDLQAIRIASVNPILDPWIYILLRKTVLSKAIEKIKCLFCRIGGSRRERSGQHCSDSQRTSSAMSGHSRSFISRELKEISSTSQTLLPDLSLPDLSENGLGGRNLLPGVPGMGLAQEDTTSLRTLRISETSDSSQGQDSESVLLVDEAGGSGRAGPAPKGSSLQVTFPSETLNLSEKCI
In short: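 Antagonism measured as inhibition of EC60 TCS2510-induced cAMP BRET signal (EPAC luciferase/GFP sensor) in transiently hEP4-expressing HEK-293T cells, following 5 min compound preincubation and 10 min luminescence recording. Plates equilibrated 1 h at 22 °C in HEPES buffer; 10 concentrations over 4.5 logs, duplicate in two independent experiments, sigmoidal variable-slope IC50.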

CT26 tumor cells = assay: In vivo anti-tumoral activity in a CT26 tumor model; parameters: species or system BALB/c mice; settings: Example 25 150 mg/kg po BID combined with anti-PD-1 antibody 200 μg/mouse iv Q3D; 12 mice per group
Method: as §1, with “CT26” for “Pan02”
Female BALB/c mice were inoculated subcutaneously in the right rear flank region with CT26 tumor cells (5×10^5) in 0.1 ml of PBS for tumor development on day 0. Tumor volumes were measured thrice per week in two dimensions using a caliper, and the volume was expressed in mm^3 using the formula: “V=(L×W×W)/2”, where V is tumor volume, L is tumor length (the longest tumor dimension) and W is tumor width (the longest tumor dimension perpendicular to L). […]
as §2, with “Dosing as well as tumor and body weight measurements were conducted in a Laminar Flow Cabinet.” left out

In the case of `CN(CCOc1ccccc1)C1(C(=O)NC2(c3ccc(C(=O)O)cc3)CC2)CCOCC1.Cl` [Example 25, 4-[1-[[4-[Methyl(2-phenoxyethyl)amino]tetrahydropyran-4-carbonyl]amino]cyclopropyl]benzoic acid, hydrochloride], the “Tumor Growth Inhibition TGI (%)” value (Pan02 tumor cells; Example 25 150 mg/kg po BID + anti-PD1 antibody 0.2 mg/animal Q3D, day 0) is reported as 0.1%, the “Tumor Growth Inhibition TGI (%)” value (Pan02 tumor cells; Example 25 150 mg/kg po BID + anti-PD1 antibody 0.2 mg/animal Q3D, day 3) is reported as 10.9% and the “Tumor Growth Inhibition TGI (%)” value (Pan02 tumor cells; Example 25 150 mg/kg po BID + anti-PD1 antibody 0.2 mg/animal Q3D, day 7) is reported as 16.9%. For the same compound, the “Tumor Growth Inhibition TGI (%)” value (Pan02 tumor cells; Example 25 150 mg/kg po BID + anti-PD1 antibody 0.2 mg/animal Q3D, day 10) was 26.1%, the “Tumor Growth Inhibition TGI (%)” value (Pan02 tumor cells; Example 25 150 mg/kg po BID + anti-PD1 antibody 0.2 mg/animal Q3D, day 14) was 51.1% and the “Tumor Growth Inhibition TGI (%)” value (Pan02 tumor cells; Example 25 150 mg/kg po BID + anti-PD1 antibody 0.2 mg/animal Q3D, day 17) was 62.8%. For the same compound, the “Tumor Growth Inhibition TGI (%)” value (Pan02 tumor cells; Example 25 150 mg/kg po BID + anti-PD1 antibody 0.2 mg/animal Q3D, day 21, hydrochloride, 150 mg/kg) was 71.0%, the “Tumor Growth Inhibition TGI (%)” value (Pan02 tumor cells; Example 25 150 mg/kg po BID + rIgG2a, day 0) was 0.0% and the “Tumor Growth Inhibition TGI (%)” value (Pan02 tumor cells; Example 25 150 mg/kg po BID + rIgG2a, day 3) was 15.6%. For the same compound, the “Tumor Growth Inhibition TGI (%)” value (Pan02 tumor cells; Example 25 150 mg/kg po BID + rIgG2a, day 7) was 22.5%, the “Tumor Growth Inhibition TGI (%)” value (Pan02 tumor cells; Example 25 150 mg/kg po BID + rIgG2a, day 10) was 25.1% and the “Tumor Growth Inhibition TGI (%)” value (Pan02 tumor cells; Example 25 150 mg/kg po BID + rIgG2a, day 14) was 51.5%. The “Tumor Growth Inhibition TGI (%)” value (Pan02 tumor cells; Example 25 150 mg/kg po BID + rIgG2a, day 17) was 61.8%, the “Tumor Growth Inhibition TGI (%)” value (Pan02 tumor cells; Example 25 150 mg/kg po BID + rIgG2a, day 21, hydrochloride, 150 mg/kg) was 68.5% and the IC50 [1] was less than 0.1 µM. The “cases of complete tumor regression” value (CT26 tumor cells) was 5 cases and the “complete tumor regression, % of the test animals” value (CT26 tumor cells) was 42%.
